Reference: PubChem BioAssay AID248 (DTP/NCI, 2004)
“And” between values parts separate entries of the source, which are not always exact repeats. Equal values may be shown once. Inconclusive results and toxic doses are left out. No stated cut-off is given here; in the data, active means T/C of 150% or more; inactive means T/C below 125%.

System: L1210 leukemia ip in BDF1 mice, survival T/C
Experiment: NCI In Vivo Anticancer Drug Screen. Data for tumor model L1210 Leukemia (intraperitoneal) in B6D2F1 (BDF1) mice
Settings: endpoint: mean survival time, higher = longer survival
Method in brief: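 Ratio derived from survival: compound-dosed mice over vehicle-dosed mice, all bearing a transplantable tumor.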

[1] = dose: 100.0 mg/kg/injection, schedule: Q04DX002 (ip), vehicle: Klucel (hydroxypropylcellulose) (HPC)
[2] = dose: 200.0 mg/kg/injection, schedule: Q04DX002 (ip), vehicle: Klucel (hydroxypropylcellulose) (HPC)
[3] = dose: 400.0 mg/kg/injection, schedule: Q04DX002 (ip), vehicle: Klucel (hydroxypropylcellulose) (HPC)

Measured: T/C

CC(C)[C@](O)(C(=O)OCC1=CC[N+]2([O-])CC[C@@H](O)[C@@H]12)[C@H](C)O (some centres not stated)
inactive: dose: 6.2 mg/kg/injection, schedule: Q01DX009 (ip), vehicle: water 96 % of control | dose: 8.0 mg/kg/injection, schedule: Q03HX024 (ip), vehicle: water 91 % of control | dose: 12.5 mg/kg/injection, schedule: Q01DX009 (ip), vehicle: water 96 % of control | dose: 16.0 mg/kg/injection, schedule: Q03HX008 (ip), vehicle: water 101 % of control | dose: 16.0 mg/kg/injection, schedule: Q03HX016 (ip), vehicle: water 101 % of control | dose: 16.0 mg/kg/injection, schedule: Q03HX024 (ip), vehicle: water 96 % of control | dose: 25.0 mg/kg/injection, schedule: Q01DX009 (ip), vehicle: saline 90 % of control | dose: 25.0 mg/kg/injection, schedule: Q01DX009 (ip), vehicle: water 98 % of control | dose: 32.0 mg/kg/injection, schedule: Q03HX008 (ip), vehicle: water 99 % of control | dose: 32.0 mg/kg/injection, schedule: Q03HX016 (ip), vehicle: water 94 % of control | dose: 32.0 mg/kg/injection, schedule: Q03HX024 (ip), vehicle: water 95 % of control | dose: 50.0 mg/kg/injection, schedule: Q01DX009 (ip), vehicle: saline 93 % of control | dose: 50.0 mg/kg/injection, schedule: Q01DX009 (ip), vehicle: water 123 % of control | dose: 64.0 mg/kg/injection, schedule: Q01DX009 (ip), vehicle: saline 99 % of control | dose: 64.0 mg/kg/injection, schedule: Q01DX009 (ip), vehicle: water 97 % of control | dose: 64.0 mg/kg/injection, schedule: Q03HX008 (ip), vehicle: water 97 % of control | dose: 64.0 mg/kg/injection, schedule: Q03HX016 (ip), vehicle: water 94 % of control | dose: 64.0 mg/kg/injection, schedule: Q03HX024 (ip), vehicle: water 99 % of control | dose: 64.0 mg/kg/injection, schedule: Q04DX003 (ip), vehicle: water 97 % of control | dose: 100.0 mg/kg/injection, schedule: Q01DX009 (ip), vehicle: saline 96 % of control | dose: 100.0 mg/kg/injection, schedule: Q01DX009 (ip), vehicle: water 110 % of control | dose: 100.0 mg/kg/injection, schedule: Q04DX002 (ip), vehicle: saline 104 % of control | dose: 128.0 mg/kg/injection, schedule: Q01DX001 (ip), vehicle: water 98 % of control | dose: 128.0 mg/kg/injection, schedule: Q01DX009 (ip), vehicle: saline 103 % of control | dose: 128.0 mg/kg/injection, schedule: Q01DX009 (ip), vehicle: water 108 % of control | dose: 128.0 mg/kg/injection, schedule: Q01DX009 (sc), vehicle: water 95 % of control | dose: 128.0 mg/kg/injection, schedule: Q03HX008 (ip), vehicle: water 101 % of control | dose: 128.0 mg/kg/injection, schedule: Q03HX016 (ip), vehicle: water 99 % of control | dose: 128.0 mg/kg/injection, schedule: Q03HX024 (ip), vehicle: water 110 % of control | dose: 128.0 mg/kg/injection, schedule: Q04DX003 (ip), vehicle: water 105 % of control | dose: 128.0 mg/kg/injection, schedule: Q08DX002 (ip), vehicle: water 95 % of control | dose: 200.0 mg/kg/injection, schedule: Q01DX009 (ip), vehicle: water 117 % of control | dose: 200.0 mg/kg/injection, schedule: Q04DX002 (ip), vehicle: saline 123 % of control | dose: 256.0 mg/kg/injection, schedule: Q01DX001 (ip), vehicle: water 99 % of control | dose: 256.0 mg/kg/injection, schedule: Q01DX009 (ip), vehicle: saline 101 % of control | dose: 256.0 mg/kg/injection, schedule: Q01DX009 (ip), vehicle: water 117 % of control | dose: 256.0 mg/kg/injection, schedule: Q01DX009 (oral), vehicle: water 103 % of control | dose: 256.0 mg/kg/injection, schedule: Q01DX009 (sc), vehicle: water 97 % of control | dose: 256.0 mg/kg/injection, schedule: Q03HX008 (ip), vehicle: water 94 % of control | dose: 256.0 mg/kg/injection, schedule: Q04DX003 (ip), vehicle: water 100 % of control | dose: 256.0 mg/kg/injection, schedule: Q08DX002 (ip), vehicle: water 101 % of control | dose: 400.0 mg/kg/injection, schedule: Q01DX009 (ip), vehicle: saline 98 % of control | dose: 400.0 mg/kg/injection, schedule: Q04DX002 (ip), vehicle: saline 120 % of control | dose: 512.0 mg/kg/injection, schedule: Q01DX001 (ip), vehicle: water 101 % of control | dose: 512.0 mg/kg/injection, schedule: Q01DX009 (ip), vehicle: water 105 % of control | dose: 512.0 mg/kg/injection, schedule: Q01DX009 (oral), vehicle: water 94 % of control | dose: 512.0 mg/kg/injection, schedule: Q01DX009 (sc), vehicle: water 104 % of control | dose: 512.0 mg/kg/injection, schedule: Q04DX003 (ip), vehicle: water 100 % of control | dose: 512.0 mg/kg/injection, schedule: Q08DX002 (ip), vehicle: water 110 % of control | dose: 800.0 mg/kg/injection, schedule: Q01DX009 (ip), vehicle: saline 111 % of control | dose: 1024.0 mg/kg/injection, schedule: Q01DX001 (ip), vehicle: water 111 % of control | dose: 1024.0 mg/kg/injection, schedule: Q01DX009 (ip), vehicle: saline 104 % of control | dose: 1024.0 mg/kg/injection, schedule: Q01DX009 (oral), vehicle: water 108 % of control | dose: 1024.0 mg/kg/injection, schedule: Q04DX003 (ip), vehicle: water 119 % of control | dose: 1024.0 mg/kg/injection, schedule: Q08DX002 (ip), vehicle: water 117 % of control

CSc1nnc(N)s1
inactive: dose: 25.0 mg/kg/injection, schedule: Q01DX009 (ip), vehicle: Klucel (hydroxypropylcellulose) (HPC) 91 % of control | dose: 50.0 mg/kg/injection, schedule: Q01DX009 (ip), vehicle: Klucel (hydroxypropylcellulose) (HPC) 94 % of control | dose: 100.0 mg/kg/injection, schedule: Q01DX009 (ip), vehicle: Klucel (hydroxypropylcellulose) (HPC) 94 % of control | [1] 94 % of control and 91 % of control | dose: 200.0 mg/kg/injection, schedule: Q01DX009 (ip), vehicle: Klucel (hydroxypropylcellulose) (HPC) 99 % of control | [2] 97 % of control and 98 % of control | dose: 400.0 mg/kg/injection, schedule: Q01DX009 (ip), vehicle: Klucel (hydroxypropylcellulose) (HPC) 98 % of control | [3] 103 % of control | dose: 800.0 mg/kg/injection, schedule: Q04DX002 (ip), vehicle: Klucel (hydroxypropylcellulose) (HPC) 87 % of control

Cc1cc(C)c(NC(=O)Cc2ccccc2)cc1C
inactive: [1] 96 % of control | [2] 96 % of control | [3] 89 % of control

NNC(=O)c1ccccc1CO
inactive: dose: 100.0 mg/kg/injection, schedule: Q01DX001 (ip), vehicle: saline with Tween-80 100 % of control | dose: 200.0 mg/kg/injection, schedule: Q01DX001 (ip), vehicle: saline with Tween-80 103 % of control

C#CC(NCCC(C)CC(C)(C)C)C(C)C (configuration not stated)
inactive: dose: 100.0 mg/kg/injection, schedule: Q04DX003 (ip), vehicle: saline with Tween-80 103 % of control | dose: 200.0 mg/kg/injection, schedule: Q04DX003 (ip), vehicle: saline with Tween-80 90 % of control

O=C(O)/C=C/C(=O)OCCO
inactive: dose: 75.0 mg/kg/injection, schedule: Q01DX001 (ip), vehicle: carboxymethylcellulose (CMC) 91 % of control | dose: 150.0 mg/kg/injection, schedule: Q01DX001 (ip), vehicle: carboxymethylcellulose (CMC) 86 % of control

CC(C)=CCC(=O)Nc1ccc(Cl)nn1
inactive: dose: 100.0 mg/kg/injection, schedule: Q04DX003 (ip), vehicle: Klucel (hydroxypropylcellulose) (HPC) 86 % of control | dose: 200.0 mg/kg/injection, schedule: Q04DX003 (ip), vehicle: Klucel (hydroxypropylcellulose) (HPC) 91 % of control | dose: 400.0 mg/kg/injection, schedule: Q04DX003 (ip), vehicle: Klucel (hydroxypropylcellulose) (HPC) 100 % of control

Oc1cc[c]([Hg][Cl])cc1
inactive: dose: 12.5 mg/kg/injection, schedule: Q04DX003 (ip), vehicle: Klucel (hydroxypropylcellulose) (HPC) 105 % of control | dose: 25.0 mg/kg/injection, schedule: Q04DX003 (ip), vehicle: Klucel (hydroxypropylcellulose) (HPC) 111 % of control | dose: 50.0 mg/kg/injection, schedule: Q04DX003 (ip), vehicle: Klucel (hydroxypropylcellulose) (HPC) 99 % of control

CC(=O)OCCN1CC1
inactive: dose: 3.12 mg/kg/injection, schedule: Q01DX009 (ip), vehicle: saline 116 % of control | dose: 6.25 mg/kg/injection, schedule: Q01DX009 (ip), vehicle: saline 122 % of control | dose: 12.5 mg/kg/injection, schedule: Q01DX009 (ip), vehicle: saline 118 % of control
